Laboratory results from patent US11504425B2, “Amphiphilic oligodeoxynucleotide conjugates as adjuvant enhancers” (WAYNE STATE UNIVERSITY, priority 2019, dated 2022).

How the values were obtained:
[1] = target: T1, mouse TLR7 (mTLR7) (Mus musculus, UniProt P58681); test: HEK mTLR7 reporter cells NF-κB/SEAP; assay type: cell-based; details: ligands at indicated concentrations + 1 μM ODN, 24 h
T1 construct: host or cells: HEK-Blue-mTLR7 (HEK293)
T1 sequence (P58681 27-1050): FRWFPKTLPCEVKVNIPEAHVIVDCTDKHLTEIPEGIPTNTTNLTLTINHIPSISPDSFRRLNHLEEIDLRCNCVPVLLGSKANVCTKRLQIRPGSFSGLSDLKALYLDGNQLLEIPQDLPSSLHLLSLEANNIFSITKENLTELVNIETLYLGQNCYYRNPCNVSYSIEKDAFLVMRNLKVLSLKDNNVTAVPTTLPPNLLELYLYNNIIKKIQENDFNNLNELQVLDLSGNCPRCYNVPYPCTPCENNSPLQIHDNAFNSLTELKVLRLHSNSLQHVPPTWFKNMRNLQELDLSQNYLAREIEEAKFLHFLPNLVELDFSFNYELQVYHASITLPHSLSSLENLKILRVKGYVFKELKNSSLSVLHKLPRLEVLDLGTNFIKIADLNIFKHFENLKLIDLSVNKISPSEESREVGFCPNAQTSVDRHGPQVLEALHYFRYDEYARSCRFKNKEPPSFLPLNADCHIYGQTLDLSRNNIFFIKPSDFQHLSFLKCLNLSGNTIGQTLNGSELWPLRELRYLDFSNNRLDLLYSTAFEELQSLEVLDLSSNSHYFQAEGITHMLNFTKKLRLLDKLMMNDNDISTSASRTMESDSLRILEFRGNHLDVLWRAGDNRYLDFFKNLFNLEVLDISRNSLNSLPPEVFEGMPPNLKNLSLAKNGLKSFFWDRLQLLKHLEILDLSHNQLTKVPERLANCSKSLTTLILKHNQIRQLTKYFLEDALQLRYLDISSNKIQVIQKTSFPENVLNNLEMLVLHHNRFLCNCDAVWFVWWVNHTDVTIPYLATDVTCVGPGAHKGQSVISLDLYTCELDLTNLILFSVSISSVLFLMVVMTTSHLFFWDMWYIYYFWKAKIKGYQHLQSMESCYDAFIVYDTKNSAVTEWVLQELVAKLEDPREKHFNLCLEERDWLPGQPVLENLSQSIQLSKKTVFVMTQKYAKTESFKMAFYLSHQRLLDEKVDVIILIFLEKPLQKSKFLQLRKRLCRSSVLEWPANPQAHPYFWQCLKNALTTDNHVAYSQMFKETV
Description: (§1) HEK-Blue™-mTLR7, mTLR8, hTLR7, hTLR8, and RAW-Blue™ cells were purchased from InvivoGen and were used to evaluate bioactivities of lipo ODNs and TLR 7/8 ligands in vitro. All these cell lines were cultured with DMEM supplemented with 10% FBS, 1% P/S and 100 μg/mL Normocin at 37° C. with 5% CO2. […] After incubating for 24 h, SEAP levels were quantified by developing supernatants with QuantiBlue™ substrate for 1 h and reading absorption at 620 nm, following manufacturer's instructions.
(§2) Raw Blue cells which respond to both murine TLR-7 and TLR-8 are also included to assess the overall modulatory effect. half-maximal effective concentration (EC50) and potency of several classic TLR7/8 ligands were evaluated in murine TLR7 and TLR8 reporter cells.

[2] = target: T2, mouse TLR8 (mTLR8) (Mus musculus, UniProt P58682); test: HEK mTLR8 reporter cells NF-κB/SEAP; assay type: cell-based; details: ligands at indicated concentrations + 1 μM ODN, 24 h
T2 construct: host or cells: HEK-Blue-mTLR8 (HEK293)
T2 sequence (P58682 24-1032): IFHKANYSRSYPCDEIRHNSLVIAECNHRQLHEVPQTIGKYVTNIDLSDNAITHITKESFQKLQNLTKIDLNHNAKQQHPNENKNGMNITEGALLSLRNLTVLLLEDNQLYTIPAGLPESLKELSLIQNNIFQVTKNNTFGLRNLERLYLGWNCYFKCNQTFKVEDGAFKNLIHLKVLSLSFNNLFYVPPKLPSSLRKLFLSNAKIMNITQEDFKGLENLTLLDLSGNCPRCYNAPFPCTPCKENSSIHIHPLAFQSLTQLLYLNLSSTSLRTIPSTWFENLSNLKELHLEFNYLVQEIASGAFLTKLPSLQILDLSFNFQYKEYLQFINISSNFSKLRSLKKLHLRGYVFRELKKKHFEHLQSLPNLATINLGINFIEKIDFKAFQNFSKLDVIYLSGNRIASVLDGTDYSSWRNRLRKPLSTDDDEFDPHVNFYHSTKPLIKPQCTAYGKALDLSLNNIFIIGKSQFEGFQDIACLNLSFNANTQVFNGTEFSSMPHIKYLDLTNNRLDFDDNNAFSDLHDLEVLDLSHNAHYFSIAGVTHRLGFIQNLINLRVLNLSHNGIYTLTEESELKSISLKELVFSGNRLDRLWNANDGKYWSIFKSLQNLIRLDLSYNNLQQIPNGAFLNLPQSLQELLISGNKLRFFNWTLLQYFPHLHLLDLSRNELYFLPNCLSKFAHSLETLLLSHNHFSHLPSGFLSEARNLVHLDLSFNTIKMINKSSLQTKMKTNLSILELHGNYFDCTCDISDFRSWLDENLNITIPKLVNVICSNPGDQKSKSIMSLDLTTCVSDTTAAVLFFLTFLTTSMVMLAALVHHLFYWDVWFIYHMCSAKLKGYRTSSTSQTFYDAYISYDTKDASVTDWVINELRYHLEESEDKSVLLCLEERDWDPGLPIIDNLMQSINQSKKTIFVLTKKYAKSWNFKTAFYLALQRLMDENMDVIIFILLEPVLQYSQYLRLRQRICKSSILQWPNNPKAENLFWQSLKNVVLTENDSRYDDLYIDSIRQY
Description: as §1, §2

[3] = system: Murine splenocytes; test: Cytokine secretion by murine splenocytes (ELISA); assay type: cell-based, mice; details: 2 μM IMQ + 1 μM ODN, 24 h
Description: Spleens were freshly collected from mice and were cut into small pieces. A plunger end of a syringe was used to further disassemble spleen tissues into single cells. The cell suspension was subsequently filtered and washed. Lysing buffer was utilized to remove excessive red blood cells. After two washes, 95% viability of splenocytes was confirmed by trypan blue. Splenocytes were resuspended in RPMI-1640 supplemented with 10% FBS and 1% P/S. Splenocytes were seeded at 1×10^6 cells/ml in 200 μL in a 96-well plate.
Supernatants collected from splenocytes suspension or human PBMC suspension after incubation were separately analyzed for IL-6, IL-12p40, TNF-α, and IFN-α by ELISA following manufacturer's instructions.

Question: Which “mTLR7 activation by IMQ, CL075, R848 in the presence of the ODN” value [1] does the source give for 5′-TTTTTTTTTTTTTTTTTTTT-3′ [T20] here?
Answer: The value was “suppressed the TLR-7 activation”.

Question: And the “mTLR8 stimulation by IMQ, CL075, R848 in the presence of the ODN” value [2]?
Answer: The value was “increased the potency of TLR-8 stimulation”.

Question: And the “IFN-α production induced by IMQ” value [3]?
Answer: Its value is “decreased the production of IFN-α”.

Question: And the IL-6 production [3]?
Answer: The IL-6 production was “significantly lower level of pro-inflammatory cytokines compared with IMQ alone”.

Question: What about the IL-12p40 production [3] of the same substance?
Answer: Its IL-12p40 production is “significantly lower level of pro-inflammatory cytokines compared with IMQ alone”.

Question: And the TNF-α production [3]?
Answer: Its TNF-α production is “significantly lower level of pro-inflammatory cytokines compared with IMQ alone”.
